The text below walks through data of patent US20040014209A1, “Compositions and methods for modulating cell differentiation” (priority 2002, published 2004).

Assay [1] concerns posterior primitive streak (PPS) explants. The experiment in a line: Cardiac induction in posterior primitive streak (PPS) explants. The class given is cell-based, chick. The settings on record: PPS cocultured with transfected COS cells; RT-PCR. The source says:
As crescent is expressed in anterior endoderm at approximately the stage expected for a heart-inducing factor, we investigated whether this Wnt inhibitor could induce the formation of heart muscle in explanted gastrula-stage posterior tissues. We made a replication-competent RCAS-crescent retrovirus and examined whether viral crescent expression can substitute for anterior endoderm in the cardiac induction assay. Explants of either PLP-mesoderm or PPS were infected with RCAS viruses encoding either crescent (RCAS-crescent) or alkaline phosphatase (RCAS-AP).
Eggs were incubated to the given stage (Hamburger and Hamilton 1951), and tissues were dissected with tungsten needles in Tyrodes solution using 1% agar dishes as a base. Serum-free medium containing insulin, transferrin, and selenium was adapted from Stern and Hauschka (1995) and supplemented with 2% chick embryo extract (Life Technologies). Virally infected explants were incubated on ice with viral supernatant diluted 1:1 with culture medium for 1-2 h, then cultured overnight in a sandwich of 35% collagen pads and overlaid with the above concentration of viral supernatant and medium containing 8 μg/mL polybrene. The following day, 0.25 mL of culture medium was added to each well. Anterior endoderm and COS cell cocultures were carried out on 2-μ pore size Nucleopore filters floating on culture medium. […]

The test system of assay [2] is ventral marginal zone (VMZ) explants. The assay is described as follows: VMZ explant assay: mRNA injection, cardiac-specific gene expression and beating. The class given is cell-based, Xenopus laevis. How it is done:
In a modification of this assay (FIG. 6A), we targeted mRNAs encoding Wnt and BMP antagonists to VMZ tissue by microinjection into the equatorial region of both ventral blastomeres of four-cell stage embryos. VMZ explants were isolated at stage 10, cultured, and assayed at stage 30 by RT-PCR for cardiac-specific gene expression.
Embryos were fertilized in vitro, dejellied in 2% cysteine-HCl (pH 7.8), and maintained in 0.1×MMR. Explant dissections were performed in 0.75×MMR using an eyelash knife. Embryos were staged according to Nieuwkoop and Faber (1994).
Marginal zone explants were dissected at stage 10. Those explants to be examined by RT-PCR for expression of heart field marker- and heart muscle-specific genes were cultured until sibling embryos were stage 30. In situ hybridization was performed on explants cultured to the equivalent of stage 23 or stage 30. Explants to be scored for formation of beating hearts were maintained until the equivalent of stage 41.
mRNA was transcribed from pSP35-chd, pSP64-ngn, pCS2-DKK1, pCS2-Crescent, pCS2-GSK3, pCS2-WIF, pCS2-dnXwnt8, pCS2-szl, and pXT7-FrzA using the SP6 and T7 mMessage mMachine kits (Ambion). All cDNAs used encode Xenopus proteins except those for Wnt1 and crescent, which encode chick isoforms. The Xenopus form of crescent was identified while this manuscript was in preparation (Pfeffer et al. 1997; Pera and De Robertis 2000; Shibata et al. 2000) and functions identically to the chick isoform in our assays. Xenopus and chick Crescent share 88% amino acid positional identity within the cysteine-rich domain. Injections were performed in 3% Ficoll in 1×MMR. Embryos were injected equatorially into the two ventral or two dorsal blastomeres at the four-cell stage to target expression to the ventral or dorsal marginal zone. The amount of mRNA injected is given in the text. For plasmid cDNA injections, 75 pg of pCS2-Xwnt3A, pCS2-Xwnt5A, and pCSKA-Xwnt8 and 100 pg of pCS2-cWnt11 supercoiled plasmid constructs were injected.
RT-PCR was performed as described in Schneider and Mercola (1999). Twenty-five cycles were performed at an annealing temperature of 55° C., unless otherwise noted. Expression of EF1α was used as a positive control for the reverse transcriptase reaction. The following additional primers were used: XNkx2.5+, […] (SEQ ID NO: 7); XNkx2.5−, […] (SEQ ID NO: 8); M. actin+, […] (SEQ ID NO: 9); M. actin−, […] (SEQ ID NO: 10) (22 cycles); TnIc+, […] (SEQ ID NO: 11); TnIc−, […] (SEQ ID NO: 12); MHCα+, […] GTTCCG (SEQ ID NO: 13); MHCα−, […] (SEQ ID NO: 14); Tbx5+, […] (SEQ ID NO: 15); Tbx5−, […] (SEQ ID NO: 16) (27 cycles); XNkx2.10+, […] (SEQ ID NO: 17); and XNkx2.10−, […] (SEQ ID NO: 18) (59° C., 28 cycles).
A secreted version of the C-terminal fragment was made by fusing the secretory region of human Dkk1 to the C-terminal region cysteine rich region, as described above. This protein is referred to as “C1.” Briefly, the HindIII-Asp718 C-terminal fragment of human Dkk1 (SEQ ID NO: 1) was ligated to the sequence encoding the secretory signal of Dkk1 and cloned into a vector permitting in vitro transcription. As a control, full length Dkk1 was used. RNA was prepared in vitro from the vector as described above. The RNA encoded a polypeptide comprising amino acids 158-266 of SEQ ID NO: 2. The RNA was then injected into noncardiogenic frog embryonic mesoderm, as described above and in Schneider and Mercola (2001) Genes & Dev. 15:304.

Consider dkk-1, for which the “Cardiac gene expression (Nkx-2.5, CMHC1)” value in assay [1] was “failed to activate cardiac gene expression”. Also, the “Explants with rhythmic beating” value in assay [2] (900 pg dkk-1, 1.5 ng crescent or 1.5 ng frzb mRNA, scored at stage 41) was 73.2%. Further, in assay [2] (VMZ explants cultured to stage 41), the “Explants with induced cement glands” value turned out to be 90.7%. Besides, the “mRNA dose inducing cardiac-specific gene expression” value in assay [2] (VMZ explants, RT-PCR at stage 30) is no less than 450 pg. For the same substance, in assay [2] (mRNA injected ventrally at four-cell stage, VMZ explants, RT-PCR stage 30), the “Heart-specific gene expression (TnIc, MHCα)” value is “strong expression of TnIc and MHCα”.
